Measured values published in US20050204416A1, “Plant cells having receptor polypeptides” (priority 2004, published 2005).

Columns and labels:
[1] = target: T1, VP16-human estrogen receptor alpha (ERa) chimeric polypeptide (Homo sapiens, UniProt P03372, G400V)
Procedure: About 50 selected lines were obtained and cultured at 27° C. on N6 media containing 5 mg/ml bialaphos, with transfer to fresh media occurring about every 2 weeks. […] After incubation for about 40 hours, callus cells were examined under a dissecting microscope at 10× to 60× magnification.

[2] = target: T1, VP16-human estrogen receptor alpha (ERa) chimeric polypeptide; assay: Transgenic Arabidopsis T2 seedlings containing VP16ERα and ERE-GFP constructs, green fluorescence; assay type: cell-based; parameters: expressed in transfected cells; host or cells: transgenic rice callus (A1); transgenic Arabidopsis T2 seedlings (A2); Agrobacterium binary vector Bin4-EUTG-10::VPCR-ER-1#81, CaMV35S promoter

T1 sequence (P03372 with tags, fused parts or gaps G400V): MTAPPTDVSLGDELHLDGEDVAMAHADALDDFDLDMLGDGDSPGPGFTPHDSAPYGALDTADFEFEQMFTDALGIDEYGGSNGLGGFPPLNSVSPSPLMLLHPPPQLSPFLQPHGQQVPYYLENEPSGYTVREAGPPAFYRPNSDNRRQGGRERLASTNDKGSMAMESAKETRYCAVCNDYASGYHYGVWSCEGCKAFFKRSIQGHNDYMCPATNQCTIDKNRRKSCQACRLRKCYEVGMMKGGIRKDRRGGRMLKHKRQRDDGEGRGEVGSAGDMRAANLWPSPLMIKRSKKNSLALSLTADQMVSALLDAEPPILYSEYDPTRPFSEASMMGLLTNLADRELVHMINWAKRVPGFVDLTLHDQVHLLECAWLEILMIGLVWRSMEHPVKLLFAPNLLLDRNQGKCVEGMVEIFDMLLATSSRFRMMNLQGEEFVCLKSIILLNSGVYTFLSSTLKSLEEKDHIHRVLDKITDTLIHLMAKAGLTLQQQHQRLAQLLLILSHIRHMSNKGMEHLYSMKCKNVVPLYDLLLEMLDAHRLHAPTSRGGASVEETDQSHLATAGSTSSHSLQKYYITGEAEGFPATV

4-hydroxytamoxifen
green fluorescence (GFP reporter) in the presence of the exogenous compound [1]: moderate to very bright green fluorescence | green fluorescence (GFP reporter) of T2 seedlings [2]: moderate to strong green fluorescence
